Laboratory results published in patent EP3046573B1, “AMYLIN ANALOGUES” (Zealand Pharma A/S, priority 2013, dated 2015).
Like-named read-outs stand apart in the source and are kept apart here. Numbered stars: 1 amine (or outer) side, 2 acyl side, 3 side chain; on linkers, the order of the positions; unused ones are H or OH. Bridge positions count the residues as written; N and C are the ends. Square brackets hold non-standard residues; d marks the D form. Peptide text beside a SMILES is read from it. * marks the point of attachment. C20 diacid = O=C(O)CCCCCCCCCCCCCCCCCCC(=O)*; γGlu = O=C(O)[C@H](CCC(=O)[*:2])N[*:1]; NMeI = CC[C@H](C)[C@H](NC)C(=O)O; Sar = CNCC(=O)O

Key:
[1] = Solubility assessment (turbidity absorbance at 325 nm); format: physicochemical; settings: stock 2 mg/ml diluted 1:1, ambient temperature (typically 25°C), n=1; for Solubility, Acetate buffer pH 4: 100 mM acetate buffer pH 4.0; for Solubility, Acetate buffer pH 5: 100 mM acetate buffer pH 5.0; for Solubility, Histidine buffer pH 6: 100 mM histidine buffer pH 6.0; for Solubility, Histidine buffer pH 7: 100 mM histidine buffer pH 7.0; for Solubility, Phosphate buffer pH 6: 100 mM phosphate buffer pH 6.0; for Solubility, Phosphate buffer pH 7: 100 mM phosphate buffer pH 7.0; for Solubility, Phosphate buffer pH 7.5: 100 mM phosphate buffer pH7.5
Outline: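 Stock 2 mg/ml peptide, H2O/HCl pH 2.5; 1:1 into 100 mM buffers: acetate pH 4.0/5.0, His pH 6.0/7.0, phosphate pH 6.0/7.0/7.5. A280 + A325, ~25°C, n=1. Soluble ≥ 1 mg/ml if A325 ≤ 0.02.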

[2] = molecular target: T1, human calcitonin receptor (hCTR2) (Homo sapiens, UniProt P30988); experiment: hCTR2 assay: induction of cAMP (AlphaScreen cAMP Assay kit) in COS7 cells expressing hCTR2; format: cell-based
T1 construct: expressed in transfected cells
T1 sequence (P30988 25-474): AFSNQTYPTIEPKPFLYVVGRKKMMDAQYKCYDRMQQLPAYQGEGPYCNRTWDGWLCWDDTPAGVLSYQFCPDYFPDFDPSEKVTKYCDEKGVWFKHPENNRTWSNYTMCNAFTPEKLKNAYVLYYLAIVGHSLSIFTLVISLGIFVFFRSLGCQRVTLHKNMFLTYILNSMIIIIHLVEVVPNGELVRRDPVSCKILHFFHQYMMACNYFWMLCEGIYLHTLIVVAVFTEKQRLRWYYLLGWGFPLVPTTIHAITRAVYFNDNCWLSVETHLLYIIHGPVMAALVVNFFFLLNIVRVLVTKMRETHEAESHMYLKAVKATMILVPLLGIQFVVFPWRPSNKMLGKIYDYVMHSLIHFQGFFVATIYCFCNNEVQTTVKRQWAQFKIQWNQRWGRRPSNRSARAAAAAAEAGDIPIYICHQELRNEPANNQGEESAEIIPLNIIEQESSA
Outline: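 Stable hCTR2 clone in RAMP-naive COS7 cells; peptides titrated in Tyrode buffer (pH 7.4) with 100 µM IBMX, 0.1% casein, 15 min at 37° C. cAMP read by AlphaScreen after lysis; EC50 and efficacy relative to pramlintide from 4PL fit.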

[3] = cAMP induction in COS7 cells expressing hCTR2, average of a minimum of 3 determinations, read-out: hCTR2 EC50

| EC50 [2, 3] | Structure (SMILES) | Solubility, Acetate buffer pH 4 [1] | Solubility, Acetate buffer pH 5 [1] | Solubility, Histidine buffer pH 6 [1] | Solubility, Histidine buffer pH 7 [1] | Solubility, Phosphate buffer pH 6 [1] | Solubility, Phosphate buffer pH 7 [1] | Solubility, Phosphate buffer pH 7.5 [1] | EC50 [2] |
| --- | --- | --- | --- | --- | --- | --- | --- | --- | --- |
| 0.13 nM | CC[C@H](C)[C@@H](C(=O)N[C@@H](CC(C)C)C(=O)N[C@H](CO)C(=O)N[C@@H](CO)C(=O)N[C@H](C(=O)N[C@@H](CC(N)=O)C(=O)N[C@H](C(=O)NCC(=O)N[C@@H](CO)C(=O)N[C@@H](CC(N)=O)C(=O)N[C@H](C(=O)N1CCC[C@H]1C(N)=O)[C@@H](C)O)C(C)C)[C@@H](C)O)N(C)C(=O)CN(C)C(=O)[C@H](Cc1ccccc1)NC(=O)[C@H](CC(N)=O)NC(=O)[C@H](CC(N)=O)NC(=O)[C@H](CO)NC(=O)[C@H](CO)NC(=O)[C@H](Cc1c[nH]cn1)NC(=O)[C@H](Cc1c[nH]cn1)NC(=O)[C@H](CC(C)C)NC(=O)[C@H](Cc1ccccc1)NC(=O)[C@H](CCC(=O)O)NC(=O)[C@H](C)NC(=O)[C@H](CC(C)C)NC(=O)[C@H](CCCNC(=N)N)NC(=O)[C@H](CCC(N)=O)NC(=O)[C@@H](NC(=O)[C@H](C)NC(=O)[C@@H]1CSSC[C@H](NC(=O)[C@H](CCCNC(=N)N)NC(=O)CC[C@H](NC(=O)CCCCCCCCCCCCCCCCCCC(=O)O)C(=O)O)C(=O)N[C@@H](CC(N)=O)C(=O)N[C@@H]([C@@H](C)O)C(=O)N[C@@H](C)C(=O)N[C@@H]([C@@H](C)O)C(=O)N1)[C@@H](C)O [Compound 24, [19CD]-isoGlu-RC()NTATC()ATQRLAEFLHHSSNNF-Gly(Me)-Ile(Me)-L-DSer-STNVGSNTP-NH2] ({C20 diacid-γGlu}-RCNTATCATQRLAEFLHHSSNNF[Sar][NMeI]L[dS]STNVGSNTP-NH2; disulfide 2-7) | SS (SS indicates solubility ≥ 1mg/ml) | SS (SS indicates solubility ≥ 1mg/ml) | SS (SS indicates solubility ≥ 1mg/ml) | SS (SS indicates solubility ≥ 1mg/ml) | SS (SS indicates solubility ≥ 1mg/ml) | SS (SS indicates solubility ≥ 1mg/ml) | SS (SS indicates solubility ≥ 1mg/ml) | – |
| – | CC[C@H](C)[C@@H](C(=O)N[C@@H](CC(C)C)C(=O)N[C@@H](CO)C(=O)N[C@H](C(=O)N[C@@H](CC(N)=O)C(=O)N[C@H](C(=O)NCC(=O)N[C@@H](CO)C(=O)N[C@@H](CC(N)=O)C(=O)N[C@H](C(=O)N1CCC[C@H]1C(N)=O)[C@@H](C)O)C(C)C)[C@@H](C)O)N(C)C(=O)[C@H](C)NC(=O)CN(C)C(=O)[C@H](Cc1ccccc1)NC(=O)[C@H](CC(N)=O)NC(=O)[C@H](CC(N)=O)NC(=O)[C@H](CO)NC(=O)[C@H](CO)NC(=O)[C@H](Cc1c[nH]cn1)NC(=O)[C@H](Cc1c[nH]cn1)NC(=O)[C@H](CC(C)C)NC(=O)[C@H](Cc1ccccc1)NC(=O)[C@H](CCC(=O)O)NC(=O)[C@H](C)NC(=O)[C@H](CC(C)C)NC(=O)[C@H](CCCNC(=N)N)NC(=O)[C@H](CCC(N)=O)NC(=O)[C@@H](NC(=O)[C@H](C)NC(=O)[C@@H]1CSSC[C@H](NC(=O)[C@H](CCCNC(=N)N)NC(=O)CC[C@H](NC(=O)CCCCCCCCCCCCCCCCCCC(=O)O)C(=O)O)C(=O)N[C@@H](CC(N)=O)C(=O)N[C@@H]([C@@H](C)O)C(=O)N[C@@H](C)C(=O)N[C@@H]([C@@H](C)O)C(=O)N1)[C@@H](C)O [Compound 25, [19CD]-isoGlu-RC()NTATC()ATQRLAEFLHHSSNNF-Gly(Me)-A-Ile(Me)-LSTNVGSNTP-NH2] ({C20 diacid-γGlu}-RCNTATCATQRLAEFLHHSSNNF[Sar]A[NMeI]LSTNVGSNTP-NH2; disulfide 2-7) | SS (SS indicates solubility ≥ 1mg/ml) | SS (SS indicates solubility ≥ 1mg/ml) | SS (SS indicates solubility ≥ 1mg/ml) | SS (SS indicates solubility ≥ 1mg/ml) | SS (SS indicates solubility ≥ 1mg/ml) | SS (SS indicates solubility ≥ 1mg/ml) | SS (SS indicates solubility ≥ 1mg/ml) | 0.1 nM |
| 0.11 nM | CC[C@H](C)[C@@H](C(=O)N[C@@H](CC(C)C)C(=O)N[C@@H](CO)C(=O)N[C@H](C(=O)N[C@@H](CC(N)=O)C(=O)N[C@H](C(=O)NCC(=O)N[C@@H](CO)C(=O)N[C@@H](CC(N)=O)C(=O)N[C@H](C(=O)N1CCC[C@H]1C(N)=O)[C@@H](C)O)C(C)C)[C@@H](C)O)N(C)C(=O)CN(C)C(=O)[C@H](Cc1ccccc1)NC(=O)[C@H](CC(N)=O)NC(=O)[C@H](CC(N)=O)NC(=O)[C@H](CO)NC(=O)[C@H](CO)NC(=O)[C@H](Cc1c[nH]cn1)NC(=O)[C@H](Cc1c[nH]cn1)NC(=O)[C@H](CC(C)C)NC(=O)[C@H](Cc1ccccc1)NC(=O)[C@H](CCC(=O)O)NC(=O)[C@H](C)NC(=O)[C@H](CC(C)C)NC(=O)[C@H](CCCNC(=N)N)NC(=O)[C@H](CCC(N)=O)NC(=O)[C@@H](NC(=O)[C@H](C)NC(=O)[C@@H]1CSSC[C@H](NC(=O)[C@H](CCCNC(=N)N)NC(=O)CC[C@H](NC(=O)CCCCCCCCCCCCCCCCCCC(=O)O)C(=O)O)C(=O)N[C@@H](CC(N)=O)C(=O)N[C@@H]([C@@H](C)O)C(=O)N[C@@H](C)C(=O)N[C@@H]([C@@H](C)O)C(=O)N1)[C@@H](C)O [Compound 26, [19CD]-isoGlu-RC()NTATC()ATQRLAEFLHHSSNNF-Gly(Me)-Ile(Me)-LSTNVGSNTP-NH2] ({C20 diacid-γGlu}-RCNTATCATQRLAEFLHHSSNNF[Sar][NMeI]LSTNVGSNTP-NH2; disulfide 2-7) | SS (SS indicates solubility ≥ 1mg/ml) | SS (SS indicates solubility ≥ 1mg/ml) | SS (SS indicates solubility ≥ 1mg/ml) | SS (SS indicates solubility ≥ 1mg/ml) | SS (SS indicates solubility ≥ 1mg/ml) | SS (SS indicates solubility ≥ 1mg/ml) | SS (SS indicates solubility ≥ 1mg/ml) | – |
| – | CC[C@@H](C)[C@@H](NC(=O)[C@H](C)NC(=O)CN(C)C(=O)[C@H](Cc1ccccc1)NC(=O)[C@H](CC(N)=O)NC(=O)[C@H](CC(N)=O)NC(=O)[C@H](CO)NC(=O)[C@H](CO)NC(=O)[C@H](Cc1c[nH]cn1)NC(=O)[C@H](Cc1c[nH]cn1)NC(=O)[C@H](CC(C)C)NC(=O)[C@H](Cc1ccccc1)NC(=O)[C@H](CCC(=O)O)NC(=O)[C@H](C)NC(=O)[C@H](CC(C)C)NC(=O)[C@H](CCCNC(=N)N)NC(=O)[C@H](CCC(N)=O)NC(=O)[C@@H](NC(=O)[C@H](C)NC(=O)[C@@H]1CSSC[C@H](NC(=O)[C@H](CCCNC(=N)N)NC(=O)CC[C@H](NC(=O)CCCCCCCCCCCCCCCCCCC(=O)O)C(=O)O)C(=O)N[C@@H](CC(N)=O)C(=O)N[C@@H]([C@@H](C)O)C(=O)N[C@@H](C)C(=O)N[C@@H]([C@@H](C)O)C(=O)N1)[C@@H](C)O)C(=O)N[C@@H](CC(C)C)C(=O)N[C@@H](CO)C(=O)N[C@@H](CO)C(=O)N[C@H](C(=O)N[C@@H](CC(N)=O)C(=O)N[C@H](C(=O)NCC(=O)N[C@@H](CO)C(=O)N[C@@H](CC(N)=O)C(=O)N[C@H](C(=O)N1CCC[C@H]1C(N)=O)[C@@H](C)O)C(C)C)[C@@H](C)O [Compound 28, [19CD]-isoGlu-RC()NTATC()ATQRLAEFLHHSSNNF-Gly(Me)-A-DIle-LSSTNVGSNTP-NH2] ({C20 diacid-γGlu}-RCNTATCATQRLAEFLHHSSNNF[Sar]A[dI]LSSTNVGSNTP-NH2; disulfide 2-7) | SS (SS indicates solubility ≥ 1mg/ml) | SS (SS indicates solubility ≥ 1mg/ml) | SS (SS indicates solubility ≥ 1mg/ml) | SS (SS indicates solubility ≥ 1mg/ml) | SS (SS indicates solubility ≥ 1mg/ml) | SS (SS indicates solubility ≥ 1mg/ml) | SS (SS indicates solubility ≥ 1mg/ml) | 0.16 nM |
